Activity calls are given as the source filed them. The calls are words filed in the database; no cut-off is given here. Bounds are passed on as bounds.

Data on one molecule can be found in ChEMBL document CHEMBL5537136 (J Med Chem, 2024).

The target in series [1] is T1, Poly [ADP-ribose] polymerase tankyrase-1 (Homo sapiens, UniProt O95271).
T1 sequence (O95271 whole entry): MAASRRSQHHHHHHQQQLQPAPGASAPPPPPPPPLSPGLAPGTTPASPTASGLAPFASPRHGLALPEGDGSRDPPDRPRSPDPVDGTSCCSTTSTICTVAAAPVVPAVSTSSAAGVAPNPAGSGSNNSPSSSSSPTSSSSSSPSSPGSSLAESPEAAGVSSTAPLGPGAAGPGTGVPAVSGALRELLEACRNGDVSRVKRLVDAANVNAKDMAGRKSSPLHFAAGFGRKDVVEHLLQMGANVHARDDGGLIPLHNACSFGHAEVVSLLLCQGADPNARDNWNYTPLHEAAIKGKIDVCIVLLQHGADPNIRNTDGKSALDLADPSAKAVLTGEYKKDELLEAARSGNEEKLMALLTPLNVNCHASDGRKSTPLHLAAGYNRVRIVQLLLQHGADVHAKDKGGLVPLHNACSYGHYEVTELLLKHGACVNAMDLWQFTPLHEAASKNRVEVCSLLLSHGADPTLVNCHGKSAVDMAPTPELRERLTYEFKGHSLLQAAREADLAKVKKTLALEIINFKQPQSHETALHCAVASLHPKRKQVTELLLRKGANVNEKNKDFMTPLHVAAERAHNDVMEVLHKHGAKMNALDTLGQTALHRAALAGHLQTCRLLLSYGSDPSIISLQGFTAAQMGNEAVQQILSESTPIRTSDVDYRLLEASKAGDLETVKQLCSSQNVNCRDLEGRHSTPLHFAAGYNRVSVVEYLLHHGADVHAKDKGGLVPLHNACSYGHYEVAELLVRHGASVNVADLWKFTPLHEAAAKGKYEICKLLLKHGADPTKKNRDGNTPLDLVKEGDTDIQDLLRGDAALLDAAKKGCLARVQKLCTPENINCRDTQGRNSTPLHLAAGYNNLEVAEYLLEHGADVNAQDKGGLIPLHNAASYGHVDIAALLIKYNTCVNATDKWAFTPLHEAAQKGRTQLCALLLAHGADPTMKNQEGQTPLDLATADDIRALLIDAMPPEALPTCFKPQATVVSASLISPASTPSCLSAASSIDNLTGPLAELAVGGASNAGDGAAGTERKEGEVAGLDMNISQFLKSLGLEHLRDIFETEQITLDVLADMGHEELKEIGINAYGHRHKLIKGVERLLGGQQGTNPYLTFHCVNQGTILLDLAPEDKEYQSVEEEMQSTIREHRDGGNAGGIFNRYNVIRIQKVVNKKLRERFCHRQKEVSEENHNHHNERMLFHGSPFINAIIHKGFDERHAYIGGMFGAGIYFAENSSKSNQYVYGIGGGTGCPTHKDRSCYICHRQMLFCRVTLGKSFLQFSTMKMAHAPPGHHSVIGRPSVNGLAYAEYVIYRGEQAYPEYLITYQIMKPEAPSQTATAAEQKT
Put plainly: Inhibition of TNKS1 (unknown origin) measured after 1 hr incubation by microplate reader assay.

For series [2], the target named is T2, Protein mono-ADP-ribosyltransferase PARP11 (Homo sapiens, UniProt Q9NR21).
T2 sequence (Q9NR21 whole entry): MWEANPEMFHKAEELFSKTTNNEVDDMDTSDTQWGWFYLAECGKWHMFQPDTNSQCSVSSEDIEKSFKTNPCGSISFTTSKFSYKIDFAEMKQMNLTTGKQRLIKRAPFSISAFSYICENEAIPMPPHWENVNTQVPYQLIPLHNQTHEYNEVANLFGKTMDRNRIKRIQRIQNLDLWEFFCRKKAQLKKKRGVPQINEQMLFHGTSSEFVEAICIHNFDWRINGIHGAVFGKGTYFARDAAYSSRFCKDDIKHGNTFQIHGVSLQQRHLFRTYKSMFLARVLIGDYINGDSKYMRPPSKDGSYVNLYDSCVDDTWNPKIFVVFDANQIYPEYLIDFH
Put plainly: Inhibition of PARP11 (unknown origin) measured after 1 hr incubation by microplate reader assay.

Series [3] is described as follows: Permeability across apical to basolateral side in human Caco-2 cells. In kind it is ADME, cell-based. On the technique in general: Caco-2 monolayers are a common model of the intestinal barrier.
Another series has as its target Cytochrome P450 2C9 (Homo sapiens, UniProt P11712). Put plainly: Inhibition of CYP2C9 (unknown origin). Format: ADME.
Another series deals with CYP3A4/5 (Homo sapiens, UniProt P08684+P20815). Put plainly: Inhibition of CYP3A4/5 (unknown origin). Format: ADME, protein assay.
A short description of series [4]: C0 in ICR mouse at 1 mg/kg, iv measured upto 24 hrs by LC-MS/MS analysis. In kind it is ADME, organism-based. Conditions: in vivo.
The nature of series [5]: Apparent volume of distribution in ICR mouse at 1 mg/kg, iv measured upto 24 hrs by LC-MS/MS analysis. Conditions: in vivo, read-out: Vz. Format: ADME, organism-based.
Series [6] in a line: Cmax in ICR mouse at 10 mg/kg, IG measured upto 24 hrs by LC-MS/MS analysis. In kind it is ADME, organism-based. Conditions: in vivo, po.
Series [7] is described as follows: AUC (0 to infinity) in ICR mouse at 10 mg/kg, IG measured upto 24 hrs by LC-MS/MS analysis. Format: ADME, organism-based. Conditions: in vivo, po.
Series [8] concerns CT26. Put plainly: Antitumor activity in immunocompetent mouse CT26 cell bearing mouse model assessed as tumor growth inhibition at 6.25 mg/kg, IG treated twice a day measured after 14 days relative to control. Format: functional. As to conditions: CT26, po, 336 h, time 14 day, read-out: TGI.
For series [9], the system named is CT26. Put plainly: Antitumor activity in immunocompetent mouse CT26 cell bearing mouse model assessed as tumor growth inhibition at 12.5 mg/kg, IG treated twice a day measured after 14 days relative to control. Format: functional. Conditions: CT26, po, 336 h, time 14 day, read-out: TGI.
Series [10] deals with CT26. Put plainly: Antitumor activity in immunocompetent mouse CT26 cell bearing mouse model assessed as tumor growth inhibition at 25 mg/kg, IG treated twice a day measured after 14 days relative to control. Format: functional. Conditions: CT26, po, 336 h, time 14 day, read-out: TGI.
A short description of series [11]: Toxicity in Balb/c mouse bearing mouse CT26 cells assessed as morphological changes in spleen at 6.25 to 25 mg/kg, IG measured after 14 days by hematoxylin and eosin staining based assay. As to conditions: in vivo, po, 336 h, dose 6.25-25 mg/kg, time 14 day. In kind it is organism-based.
For series [12], the system named is CT26. Put plainly: Antitumor activity in immunocompetent mouse CT26 cell bearing Balb/c mouse model assessed as induction of IFN-beta release in tumor tissue at 6.25 to 25 mg/kg, IG treated twice a day measured after 14 days by immunohistochemistry staining based assay. Format: functional, organism-based. Conditions: dose lower 6.25 mg/kg, dose upper […], time 14.0 day.

Series [13] has as its system CT26. Put plainly: Antitumor activity against mouse CT26 cells implanted in Balb/c mouse assessed as increase in infiltration of CD3 positive CD8 positive T lymphocytes in tumors at 25 mg/kg, IG measured after 14 days by flow cytometry. In kind it is functional, organism-based. As to conditions: time 14.0 day. A general note: Flow cytometry measures light scatter and fluorescence of single cells or particles in a stream.

Cytochrome P450 2C9, sequence (P11712 whole entry): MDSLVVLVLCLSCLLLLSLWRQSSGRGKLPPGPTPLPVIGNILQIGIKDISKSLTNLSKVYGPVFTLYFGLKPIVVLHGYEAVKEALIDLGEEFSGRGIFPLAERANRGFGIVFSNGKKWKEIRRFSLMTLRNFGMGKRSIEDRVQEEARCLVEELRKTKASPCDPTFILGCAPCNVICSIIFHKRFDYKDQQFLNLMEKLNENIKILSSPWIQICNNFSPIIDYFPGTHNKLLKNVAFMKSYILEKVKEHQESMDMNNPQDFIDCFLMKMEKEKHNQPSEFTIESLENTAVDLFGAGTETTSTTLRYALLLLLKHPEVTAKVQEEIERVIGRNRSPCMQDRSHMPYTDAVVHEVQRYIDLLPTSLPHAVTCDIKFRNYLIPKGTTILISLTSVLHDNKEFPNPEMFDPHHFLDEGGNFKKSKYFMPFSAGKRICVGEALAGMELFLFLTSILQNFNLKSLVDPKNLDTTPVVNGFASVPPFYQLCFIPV

Regarding `C[C@@H](C(=O)N1CCN(c2ncc(C(F)(F)F)cn2)CC1)n1cc2cccc(C(N)=O)c2n1`, the IC50 (commonly the concentration that inhibits the measured activity by half) was 0.901 µM in [1], more than 5 µM in [2], more than 30 µM at Cytochrome P450 2C9 and more than 30 µM against CYP3A4/5. The Papp A→B (as a rule, the apparent permeability from the apical to the basolateral side of a cell layer) in [3] amounted to 25.7 ×10⁻⁶ cm/s. In series [4], this molecule showed a C0 at 24 h of 1590 ng/mL. In series [5], the Vd was 0.978 L/kg. Also, the Cmax (commonly the maximum level reached in the sampled fluid or tissue) in series [6] worked out at 7350 ng/mL. In [7], the AUC(0-inf) – broadly, total exposure, with the tail of the curve extrapolated – stood at 17000 ng·h/mL. Also, the inhibition in vivo at 6.25 mg/kg with CT26 [8] is 42%. Further, the inhibition in vivo at 12.5 mg/kg with CT26 [9] was found to be 53%. In addition, the inhibition in vivo at 25 mg/kg with CT26 [10] is 83%. The Activity entry in series [11] is “Non-Toxic”. Also, the outcome with CT26 [12] and in the series on CT26 [13] was Active.
